The assay has as its target Aβ40 (Homo sapiens, UniProt P05067). In words: kinetic ThT assay for Aβ aggregation. The assay is classed as biochemical. The conditions noted are these: for IC50: ThT fluorescence, 20 μM Aβ, 37° C., up to 80 hr, parenthesis = compound 1027 in same experiment, read-out: IC50 A β 1-40; for inhibition at 10 µM: compound 10 μM, read-out: % inhib Aβ 40 10 μM; for inhibition at 10 µM / inhibition at 5 µM / inhibition at 20 µM: DMSO control at 80 hr = 0% inhibition, parenthesis = compound 1027; for inhibition at 5 µM: 80 h, compound 5 μm, read-out: % inhib Aβ 40 (5 μm); for inhibition at 20 µM: compound 20 μM, read-out: % inhib. A β 40 (20 μM). How it is done: Aβ40 (1.0 mg) was pre-treated in a 1.5 mL microfuge tube with HFIP (1 mL) and sonicated for 20 min to disassemble any pre-formed Aβ aggregates. The HFIP was removed with a stream of argon and the Aβ dissolved in Tris base (5.8 mL, 20 mM, pH˜10). The pH was adjusted to 7.4 with concentrated HCl (˜10 μL) and the solution filtered using a syringe filter (0.2 μm) before being used.
The kinetic ThT assay for AP aggregation is similar to that of Chalifour et al (Chalifour et al, 2003, J. Biol. Chem. 278:34874-81). Briefly, pre-treated Aβ40 or Aβ42 (40 μM in 20 mM Tris, pH 7.4) was diluted with an equal volume of 8 μM Thioflavin T (ThT) in Tris (20 mM, pH 7.4, 300 mM NaCl). Aliquots of Aβ/ThT (200 μL) were added to wells of a black polystyrene 96-well plate, followed by 2 μL of a compound in DMSO (variable concentration), or DMSO alone (controls). Incubations were performed in triplicate and were taken to contain 20 μM Aβ, various concentration of compound in 20 mM Tris, pH 7.4, 150 mM NaCl, 1% DMSO. Plates were covered with clear polystyrene lids and incubated at 37° C. in a Tecan Genios microplate reader.
Fluorescence readings (λex=450 nm, λem=480 nm) were taken every 15 min., after first shaking at high intensity for 15 s and allowing to settle for 10 s before each reading. Active compounds attenuated the increase in fluorescence over time that occurred in controls. In FIGS. 1-7, the time this procedure was performed extended to 80 hours (rightmost part of X-axis), at which point fluorescence increase generally reached an asymptote. Applying a definition of DMSO control at 80 hr as 100% aggregation (0% inhibition) and DMSO control at 0 hr as 0% aggregation (100% inhibition), a % inhibition score where higher is better can be calculated for a given concentration of compound. By repeating this procedure over several concentrations, a […] (IC50) can be measured, as is given in the table below for some compounds.
Data is summarized in the table below; numbers given in parenthesis are the values in that particular experiment for compound ID 1027, given as the first entry in this table for comparison.

The values below come from US9328078B2, “Benzofurazan anti-amyloid compounds and methods” (Treventis Corporation, priority 2012, dated 2016).

Sequence of Aβ40 (P05067 672-711 limits assumed, species assumed): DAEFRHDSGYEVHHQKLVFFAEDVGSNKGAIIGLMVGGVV

As for `CC1CCCN1c1cc(-c2cccc(C(O)C(F)(F)F)c2)cc2nonc12` (mixture of isomers) [TRV-1379], the IC50 stood at 1.65 µM.

As for `CC(O)c1cccc(-c2cc(NCc3ccccc3)c3nonc3c2)c1` (centres unmarked) [TRV-1259], the inhibition at 10 µM is 66.3%.

For `CC(O)c1cccc(-c2cc(N3CCCC3)c3nonc3c2)c1` (centres unmarked) [TRV-1310], the inhibition at 10 µM worked out at 81.5%.

On to `CC(O)c1cccc(-c2cc(N(C)Cc3ccccc3)c3nonc3c2)c1` (centres unmarked) [TRV-1358], for which the inhibition at 10 µM was determined as 72.7%.

On to `CC(O)c1cccc(-c2cc(N3CCC[C@H]3CO)c3nonc3c2)c1` (some centres unmarked) [TRV-1359], for which the inhibition at 10 µM was found to be 75.2%.

For the compound `OC(c1cccc(-c2cc(N3CCOCC3)c3nonc3c2)c1)C(F)(F)F` (centres unmarked) [TRV-1360], the inhibition at 10 µM came out at 58.9%.

As for `OC(c1cccc(-c2cc(N3CCCC3)c3nonc3c2)c1)C(F)(F)F` (centres unmarked) [TRV-1361], the inhibition at 10 µM is 88.9%.

On to `CC(=O)c1cccc(-c2cc(N3CCCC3)c3nonc3c2)c1` [TRV-1362], for which the inhibition at 10 µM turned out to be 41.4%.

As for `OC(c1ccc(-c2cc(N3CCCC3)c3nonc3c2)s1)C(F)(F)F` (centres unmarked) [TRV-1364], the IC50 was found to be 1 µM.

As for `OC(c1ccc(-c2cc(N3CCCC3)c3nonc3c2)cc1)C(F)(F)F` (centres unmarked) [TRV-1365], the IC50 came out at 0.92 µM.

`OC(c1ccccc1-c1cc(N2CCCC2)c2nonc2c1)C(F)(F)F` (centres unmarked) [TRV-1366]: the IC50 is 3.03 µM.

Turning to `OC(c1cc(N2CCCC2)c2nonc2c1)C(F)(F)F` (centres unmarked) [TRV-1368], the inhibition at 10 µM is 61.4%.

Turning to `CN1CCN(c2cc(-c3cccc(C(O)C(F)(F)F)c3)cc3nonc23)CC1` (centres unmarked) [TRV-1376], the IC50 stood at 51.7 µM.

Take `CC(C)N(C)c1cc(-c2cccc(C(O)C(F)(F)F)c2)cc2nonc12` (centres unmarked) [TRV-1377]: the IC50 is 1.86 µM.

Consider `CN(Cc1ccccc1)c1cc(-c2cccc(C(O)C(F)(F)F)c2)cc2nonc12` (centres unmarked) [TRV-1378], for which the concentration for half-maximal inhibition (IC50) is 2.38 µM.

`OC(c1cccc(-c2cc(NCc3ccccc3)c3nonc3c2)c1)C(F)(F)F` (centres unmarked) [TRV-1380]: the inhibition at 5 µM is 57.1%.

With `OC(c1cccc(-c2cc(N3CCCCC3)c3nonc3c2)c1)C(F)(F)F` (centres unmarked) [TRV-1381], the inhibition at 5 µM came to 70.4%.

In the case of `CCN(CC)c1cc(-c2cccc(C(O)C(F)(F)F)c2)cc2nonc12` (centres unmarked) [TRV-1382], the inhibition at 5 µM is 60%.

As to `COCCN(C)c1cc(-c2cccc(C(O)C(F)(F)F)c2)cc2nonc12` (centres unmarked) [TRV-1383], the inhibition at 5 µM turned out to be 54.9%.

Turning to `CCN(C)c1cc(-c2cccc(C(O)C(F)(F)F)c2)cc2nonc12` (centres unmarked) [TRV-1384], the inhibition at 5 µM turned out to be 72.4%.

For the compound `OC(c1cccc(-c2cc(N3CCSCC3)c3nonc3c2)c1)C(F)(F)F` (centres unmarked) [TRV-1385], the inhibition at 5 µM worked out at 65.6%.

For the compound `CN(Cc1ccc(F)cc1)c1cc(-c2cccc(C(O)C(F)(F)F)c2)cc2nonc12` (centres unmarked) [TRV-1390], the inhibition at 5 µM was 51% and the inhibition at 20 µM worked out at 75%.

For the compound `CN(Cc1ccccc1)c1cc(C(O)C(F)(F)F)cc2nonc12` (centres unmarked) [TRV-1392], the inhibition at 5 µM came to 36% and the inhibition at 20 µM is 69%.

For the compound `CN(Cc1ccc(F)cc1)c1cc(C(O)C(F)(F)F)cc2nonc12` (centres unmarked) [TRV-1397], the inhibition at 5 µM amounted to 38% and the inhibition at 20 µM was found to be 61%.

With `CN(Cc1ccc(F)cc1)c1cc(/C=C/C(O)(C(F)(F)F)C(F)(F)F)cc2nonc12` [TRV-1400], the inhibition at 5 µM was 48% and the inhibition at 20 µM is 80%.

For the compound `OC(c1cccc(-c2cc(N3Cc4ccccc4C3)c3nonc3c2)c1)C(F)(F)F` (centres unmarked) [TRV-1401], the inhibition at 5 µM was found to be 39% and the inhibition at 20 µM came out at 58%.

For `COC1CN(c2cc(-c3cccc(C(O)C(F)(F)F)c3)cc3nonc23)C1` (centres unmarked) [TRV-1403], the inhibition at 5 µM was 51% and the inhibition at 20 µM amounted to 81%.

Take `C#CCN(C)c1cc(-c2cccc(C(O)C(F)(F)F)c2)cc2nonc12` (centres unmarked) [TRV-1404]: the inhibition at 5 µM was 39% and the inhibition at 20 µM was found to be 69%.

Take `CN(c1cc(-c2cccc(C(O)C(F)(F)F)c2)cc2nonc12)C1CC1` (centres unmarked) [TRV-1405]: the inhibition at 5 µM turned out to be 46% and the inhibition at 20 µM worked out at 76%.

With `OC1CN(c2cc(-c3cccc(C(O)C(F)(F)F)c3)cc3nonc23)C1` (centres unmarked) [TRV-1406], the inhibition at 5 µM came to 53% and the inhibition at 20 µM was 83%.

For `CN(Cc1ccc(F)cc1)c1cc(/C=C/CO)cc2nonc12` [TRV-1409], the inhibition at 5 µM was determined as 50% and the inhibition at 20 µM was 69%.

With `COC1CCN(c2cc(-c3cccc(C(O)C(F)(F)F)c3)cc3nonc23)C1` (centres unmarked) [TRV-1411], the inhibition at 5 µM amounted to 56% and the inhibition at 20 µM came to 81%.

For `CN(Cc1ccccn1)c1cc(-c2cccc(C(O)C(F)(F)F)c2)cc2nonc12` (centres unmarked) [TRV-1412], the inhibition at 5 µM worked out at 51% and the inhibition at 20 µM was 64%.

As for `CN(Cc1cccnc1)c1cc(-c2cccc(C(O)C(F)(F)F)c2)cc2nonc12` (centres unmarked) [TRV-1413], the inhibition at 5 µM stood at 53% and the inhibition at 20 µM is 61.3%.

Consider `COc1ccc(CN(C)c2cc(-c3cccc(C(O)C(F)(F)F)c3)cc3nonc23)cc1` (centres unmarked) [TRV-1414], for which the inhibition at 5 µM amounted to 53% and the inhibition at 20 µM came out at 69%.

As for `COc1cc(CN(C)c2cc(-c3cccc(C(O)C(F)(F)F)c3)cc3nonc23)cc(OC)c1` (centres unmarked) [TRV-1415], the inhibition at 5 µM was 52% and the inhibition at 20 µM was found to be 53%.

For `CN(Cc1ccc(F)cc1)c1cc(C(=O)C(F)(F)F)cc2nonc12` [TRV-1417], the inhibition at 5 µM amounted to 52% and the inhibition at 20 µM turned out to be 75%.

Regarding `CC(=O)c1cc(N(C)Cc2ccc(F)cc2)c2nonc2c1` [TRV-1418], the inhibition at 5 µM worked out at 34% and the inhibition at 20 µM is 55%.

With `OC1(c2cc(N3Cc4ccccc4C3)c3nonc3c2)COC1` [TRV-1419], the inhibition at 5 µM amounted to 48% and the inhibition at 20 µM is 55%.

Consider `OC(c1cc(N2Cc3ccccc3C2)c2nonc2c1)C(F)(F)F` (centres unmarked) [TRV-1420], for which the inhibition at 5 µM worked out at 44% and the inhibition at 20 µM stood at 48%.

As for `CC(O)/C=C/c1cc(N(C)Cc2ccc(F)cc2)c2nonc2c1` (centres unmarked) [TRV-1427], the inhibition at 10 µM was determined as 41%.

As to `OCC1CN(c2cc(-c3cccc(C(O)C(F)(F)F)c3)cc3nonc23)C1` (centres unmarked) [TRV-1428], the inhibition at 10 µM is 78%.

Regarding `OC(c1cccc(-c2cc(N3CCC3)c3nonc3c2)c1)C(F)(F)F` (centres unmarked) [TRV-1432], the inhibition at 10 µM turned out to be 51%.

As for `CC1(O)CN(c2cc(-c3cccc(C(O)C(F)(F)F)c3)cc3nonc23)C1` (centres unmarked) [TRV-1436], the inhibition at 5 µM amounted to 48% and the inhibition at 10 µM worked out at 67%.

On to `CCOC1CN(c2cc(-c3cccc(C(O)C(F)(F)F)c3)cc3nonc23)C1` (centres unmarked) [TRV-1437], for which the inhibition at 5 µM turned out to be 44% and the inhibition at 10 µM amounted to 50%.

`O=C(c1cccc(-c2cc(N3CCC3)c3nonc3c2)c1)N1CCNCC1` [TRV-1440]: the inhibition at 5 µM amounted to 52% and the inhibition at 10 µM stood at 60%.

For `O=C(NC1CC1)c1cccc(-c2cc(N3CCC3)c3nonc3c2)c1` [TRV-1441], the inhibition at 5 µM stood at 47% and the inhibition at 10 µM stood at 64%.

`O=C(c1cccc(-c2cc(N3CCC3)c3nonc3c2)c1)N1CCOCC1` [TRV-1442]: the inhibition at 5 µM amounted to 29% and the inhibition at 10 µM worked out at 43%.

With `CN(Cc1ccc(F)cc1)c1cc(-c2cccc(C3(O)COC3)c2)cc2nonc12` [TRV-1446], the inhibition at 5 µM is 29% and the inhibition at 10 µM was 50%.
